# Assay results taken from article PMC11952493 (bioRxiv, 2025).
# Where no end group is shown, it is not given here.
# Target: T1, Recombinant Human FAPα (Homo sapiens, UniProt Q12884)
# T1 sequence (Q12884 1-760): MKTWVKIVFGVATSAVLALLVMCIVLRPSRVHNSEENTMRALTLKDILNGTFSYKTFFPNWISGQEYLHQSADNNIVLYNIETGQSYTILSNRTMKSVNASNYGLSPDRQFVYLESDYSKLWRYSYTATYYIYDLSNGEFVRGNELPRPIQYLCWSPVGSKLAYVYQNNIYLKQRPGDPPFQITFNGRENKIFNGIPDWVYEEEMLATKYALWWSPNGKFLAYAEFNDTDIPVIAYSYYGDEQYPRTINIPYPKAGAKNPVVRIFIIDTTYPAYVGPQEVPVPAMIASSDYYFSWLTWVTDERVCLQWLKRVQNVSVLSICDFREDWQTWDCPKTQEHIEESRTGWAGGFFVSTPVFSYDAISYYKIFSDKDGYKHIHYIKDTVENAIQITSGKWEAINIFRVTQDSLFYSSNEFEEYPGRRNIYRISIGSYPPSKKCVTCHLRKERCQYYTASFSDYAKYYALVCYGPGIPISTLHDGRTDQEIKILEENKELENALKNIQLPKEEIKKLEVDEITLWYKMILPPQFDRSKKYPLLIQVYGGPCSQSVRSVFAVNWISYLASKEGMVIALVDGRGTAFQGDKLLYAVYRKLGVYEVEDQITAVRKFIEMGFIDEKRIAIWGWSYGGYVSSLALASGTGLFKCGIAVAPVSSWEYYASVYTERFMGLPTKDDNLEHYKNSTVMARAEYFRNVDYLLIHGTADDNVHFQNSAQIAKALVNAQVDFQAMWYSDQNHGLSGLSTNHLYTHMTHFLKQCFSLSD
# Experiment: Fluorogenic substrate cleavage assay with FAPα
# Format: biochemical
# Settings: 200 μM substrate, 37°C; 10 nM FAPα, 2 nM DPP4, 6 nM DPP9, 3-6 nM PREP
row,Sequence,"selectivity for FAPα over DPP4, DPP9 and PREP (in words)"
1,AACSFRINSLCG (also: sidechain bridge or staple (positions not given here)) [FAP-24],highest specificity
2,AACVSFQNLDCG (also: sidechain bridge or staple (positions not given here)) [FAP-33],highest specificity
